pIC50: −log10 of the molar value. Where two headings read alike, the source gives them in different places.
Columns and labels:
cells = conditions: Borzillo et al., Curr. Top Med. Chem., 2005; cited from earlier work
[1] = tested on: Hedgehog protein signaling pathway; assay: Inhibition of SAG-induced alkaline phosphatase activity (differentiation) in C3H10T1/2 cells; assay type: cell-based; conditions: read-out: IC50 (concentration which inhibits 50% of the alkaline phosphatase activity)
Description: The compounds of formula (I) to be tested were dissolved in dimethyl sulfoxide until a concentration of 10 mM was obtained, and then stored at a temperature of −20° C. until use.
The pluripotent fibroblast cell line C3H10T1/2 was cultured under the conditions recommended by the American Type Culture Collection (ATCC).
Activation with SAG causes the cell line to differentiate and allows the cells to express alkaline phosphatase. It was thus possible to measure the activity of the Hedgehog protein signaling pathway by measuring the alkaline phosphatase activity.
The C3H10T1/2 cells were seeded onto 96-well plates at a density of 5×10^3 cells per well, 24 hours before the addition of the test compounds at a concentration ranging from 1 nM to 30 μM and in the presence of 0.1 μM of SAG, using DMEM (Dulbecco's Modified Eagle's Medium) with 10% fetal calf serum, as culture medium. The tests were carried out in quadruplicate. The plates were then incubated for 5 to 6 days at a temperature of 37° C. under an atmosphere of 5% CO2. The cells were then washed in a cold phosphate buffer (Phosphate Buffered Saline: PBS), and then lysed by sonication at 4° C. in 50 μL of solution containing 0.9% of NaCl and 0.2% of Triton X-100.

Shh pathway = assay: In vivo inhibition of Shh-induced Patched mRNA in the subventricular zone of adult mouse brain (in situ hybridization); conditions: adult mice, 4.5 pmol injected with recombinant Shh protein (290 ng) into the lateral ventricle, in situ hybridization 48 hours after injection
Description: Adult male Swiss mice (8 weeks old, 35 g) were anesthetized with a mixture of ketamine (Mérial®, Lyon, France) (0.1 mg/g) and xylazine (Bayer®, Puteaux, France) (0.01 mg/g) by intraperitoneal (i. p.) injection. The recombinant Shh protein (290 ng in a buffer solution containing 150 mM of sodium chloride NaCl and 0.5 mM of dithitheritol DTT), was diluted in 4.5 μl of a solution of 2-hydroxypropyl-beta-cyclodextrin (HBC) at 45% in PBS optionally containing 4.5 pmol of Cur61414 or of compound 24. This mixture was injected stereotaxically into the right lateral ventricle (LV) (n=5 animals for each group), at the following coordinates given relative to the Bregma axis: anteroposterior+0.2 mm; lateral+0.8 mm; dorsoventral−2.5 mm. The reference atlas for the stereotaxic coordinates is: The mouse brain in stereotaxic coordinates, Georges Paxinos, Keith B. J., Franklin, 2nd edition, 2001, Academic Press (San Diego, United States).
The detection of the Patched messenger RNA by in situ hybridization was carried out 48 hours after the injection, as described by Traiffort et al., Eur. J. Neursci, 1999, 11, 3199-3214.

[2] = target: T1, mouse Smoothened receptor (Mus musculus, UniProt P56726); assay: Competition with bodipycyclopamine binding on HEK293 cells transfected with mouse Smoothened; conditions: 5 nM bodipycyclopamine, 2 hours at 37° C., read-out: IC50 (concentration which inhibits 50% of the bodipycyclopamine binding)
T1 construct: expressed in transfected cells; host or cells: HEK293 cells, transiently transfected with Fugene6
T1 sequence (P56726 33-793): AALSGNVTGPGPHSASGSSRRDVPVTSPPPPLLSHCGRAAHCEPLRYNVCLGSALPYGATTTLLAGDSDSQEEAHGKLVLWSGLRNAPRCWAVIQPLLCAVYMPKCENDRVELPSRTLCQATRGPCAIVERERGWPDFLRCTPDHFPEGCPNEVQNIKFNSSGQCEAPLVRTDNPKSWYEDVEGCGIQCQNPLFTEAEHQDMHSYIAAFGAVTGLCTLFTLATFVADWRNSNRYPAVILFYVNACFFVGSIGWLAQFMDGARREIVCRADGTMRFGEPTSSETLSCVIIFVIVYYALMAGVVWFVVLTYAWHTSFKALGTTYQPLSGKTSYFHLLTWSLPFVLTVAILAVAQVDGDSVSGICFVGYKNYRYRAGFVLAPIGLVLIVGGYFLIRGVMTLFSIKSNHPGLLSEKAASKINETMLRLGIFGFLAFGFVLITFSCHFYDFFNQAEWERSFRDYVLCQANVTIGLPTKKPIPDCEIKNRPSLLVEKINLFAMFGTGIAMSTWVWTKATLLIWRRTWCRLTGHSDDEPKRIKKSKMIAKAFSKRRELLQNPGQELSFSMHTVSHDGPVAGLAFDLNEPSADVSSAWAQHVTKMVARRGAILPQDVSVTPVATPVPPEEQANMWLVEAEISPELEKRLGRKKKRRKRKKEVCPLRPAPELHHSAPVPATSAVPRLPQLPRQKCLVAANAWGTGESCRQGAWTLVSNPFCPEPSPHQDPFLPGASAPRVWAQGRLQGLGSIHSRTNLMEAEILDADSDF
Description: HEK293 cells are seeded at 70 000 cells per well onto glass cover slips treated with poly-D-lysine in a 24-well plate, and transfected the following day with 0.25 μg of plasmid encoding the mouse Smoothened protein using 0.7 μl of Fugene6 (Roche biochemicals) according to the protocol described by the supplier (i.e. 0.7 μl of Fugene 6 are added to 24 μl of DMEM without any additive, in each well. The mixture is then incubated for 5 minutes at ambient temperature, 0.25 μg of plasmid DNA are added, and then the whole is mixed and incubated for 20 to 30 minutes at ambient temperature. 25 μl of the mixture thus prepared are then added directly to the cell culture medium, in each well of the plate containing 24 wells). After 48 hours, the culture medium is removed, and the cells are rinsed once with 1 ml of a PBS (Phosphate Buffered Saline) phosphate buffer solution, and then fixed for 20 minutes in the presence of an ice-cold solution of paraformaldehyde (PFA) at 4%, and 0.12 M glucose in a PBS phosphate buffer solution. The cells are then rinsed once and washed twice for 5 minutes with 1 ml of a PBS phosphate buffer solution containing 0.5% of fetal calf serum (PBS-FCS). […] The cells are then washed twice for 5 minutes with 1 ml of PBS-FCS, then brought into contact with 1 ml of a 1×PBS phosphate buffer solution. Finally, the cover slips are mounted on a glass slide in the presence of Vectashield containing DAPI (4′,6′-diamidino-2-phenylindole) so as to label the cell nuclei (Vector). […] The fluorescence intensity is then analyzed using the Simple PCI 6.2 software (Hamamatsu Corporation), and then related to the surface area of the nuclei present on the photograph.

[3] = Mus musculus, C3H 10T1/2, after induction with 0.1 μM SAG

Molecule	pIC50 [1, 3]	also measured
cyclopamine [reference compound]	–	concentrations cytotoxic for cells (cells): above 10 μM; pIC50 ([1]; after induction with 0.1 μM SAG): 6.00 to 6.52
COc1ccc(NC(=O)c2cc(NC(=N)NC(=O)c3cc(OC)c(OC)c(OC)c3)ccc2Cl)cc1 [Compound 20, N—(N-(4-chloro-3-(4-methoxyphenylcarbamoyl)phenyl)-carbamimidoyl)-3,4,5-trimethoxybenzamide]	6.00 to 6.52	melting point: 105 °C
COc1cc(C(=O)NC(=N)Nc2cccc(-n3ccc4ccccc43)c2)cc(OC)c1OC [Compound 29, N—(N-(3-(1H-indol-1-yl)phenyl)carbamimidoyl)-3,4,5-trimethoxybenzamide]	6.00 to 6.52	–
COc1cccc(CN(C(=O)CC(C)(C)C)C2CC(C(=O)N3CCNCC3)N(Cc3ccc4c(c3)OCO4)C2)c1 (stereo not shown) [Cur61414, reference compound]	6.00 to 6.52	Induction of the Ptc gene messenger RNA in the subventricular zone (Shh pathway): disappears; pIC50 [2]: 6.52 to 7.52
COc1cc(C(=O)NC(=N)Nc2cccc(-c3cn4ccsc4n3)c2)cc(OC)c1OC [Compound 28]	6.00 to 6.52	–
COc1cc(C(=O)NC(=N)Nc2ccc(Cl)c(NC(=O)c3ccccc3)c2)cc(OC)c1OC [Compound 16, N—(N-(3-benzamido-4-chlorophenyl)carbamimidoyl)-3,4,5-trimethoxybenzamide]	6.00 to 6.52	–
COc1cc(C(=O)NC(=N)Nc2ccc(Cl)c(NC(=O)Nc3ccccc3)c2)cc(OC)c1OC [Compound 38, N—(N-(4-chloro-3-(3-phenylureido)phenyl)carbamimidoyl)-3,4,5-trimethoxybenzamide]	–	melting point: 127 °C
COc1cc(C(=O)NC(=N)Nc2cccc(NC(=O)c3ccccc3)c2)cc(OC)c1OC [Compound 15, N—(N-(3-benzamidophenyl)carbamimidoyl)-3,4,5-trimethoxybenzamide]	6.00 to 6.52	–
COc1cc(C(=O)NC(=N)Nc2ccc(Cl)c(C(=O)Nc3ccccc3)c2)cc(OC)c1OC [Compound 21, N—(N-(4-chloro-3-(phenylcarbamoyl)phenyl)carbamimidoyl)-3,4,5-trimethoxybenzamide]	6.00 to 6.52	–

Continued, in another order:

pIC50 [1, 3]	Molecule	also measured
6.52 to 7.52	COc1cc(C(=O)NC(=N)Nc2ccc(Cl)c(NC(=O)c3ccc(-c4ccccc4)cc3)c2)cc(OC)c1OC [Compound 17, N-(2-chloro-5-(3-(3,4,5-trimethoxybenzoyl)guanidino)phenyl)-biphenyl-4-carboxamide]	–
6.52 to 7.52	COc1cc(C(=O)NC(=N)Nc2cccc(-c3cc4ccccc4[nH]3)c2)cc(OC)c1OC [Compound 19, N—(N-(3-(1H-indol-2-yl)phenyl)carbamimidoyl)-3,4,5-trimethoxybenzamide]	melting point: 149 °C
6.52 to 7.52	COc1cc(C(=O)NC(=N)Nc2ccc(C)c(C(=O)Nc3ccccc3)c2)cc(OC)c1OC [Compound 22, 3,4,5-trimethoxy-N—(N-(4-methyl-3-(phenylcarbamoyl)phenyl)-carbamimidoyl)benzamide]	–
7.52 to 8.52	CS(=O)(=O)c1ccc(C(=O)Nc2ccc(Cl)c(-c3ccccn3)c2)c(Cl)c1 [GDC-0449, reference compound]	–
7.52 to 8.52	COc1cc(C(=O)NC(=N)Nc2cccc(NC(=O)c3ccc(-c4ccc(F)cc4)cc3)c2)cc(OC)c1OC [Compound 23, 4′-fluoro-N-(3-(3-(3,4,5-trimethoxybenzoyl)guanidino)phenyl)-biphenyl-4-carboxamide]	pIC50 [2]: 7.52 to 8.52
6.52 to 7.52	COc1cc(C(=O)NC(=N)Nc2cccc(NC(=O)c3ccc(N4CCOCC4)cc3)c2)cc(OC)c1OC [Compound 18, 3,4,5-trimethoxy-N—(N-(3-(4-morpholinobenzamido)phenyl)-carbamimidoyl)benzamide]	–
7.52 to 8.52	COc1cc(C(=O)NC(=N)Nc2ccc(C)c(NC(=O)c3ccc(-c4ccc(F)cc4)cc3)c2)cc(OC)c1OC [Compound 30, 4′-fluoro-N-(2-methyl-5-(3-(3,4,5-trimethoxybenzoyl)-guanidino)phenyl)biphenyl-4-carboxamide]	–
7.52 to 8.52	COc1cc(C(=O)NC(=N)Nc2ccc(C)c(NC(=O)c3ccc(-c4ccccc4)cc3)c2)cc(OC)c1OC [Compound 24, N-(2-methyl-5-(3-(3,4,5-trimethoxybenzoyl)guanidino)phenyl)-biphenyl-4-carboxamide]	Induction of the Ptc gene messenger RNA in the subventricular zone (Shh pathway): disappears; pIC50 [2]: 7.52 to 8.52

Source: patent US8889678B2, “Acyl guanidine derivatives modulating the hedgehog protein signaling pathway” (Centre National de la Recherche Scientifique, priority 2009, dated 2014)
